According to ChEMBL document CHEMBL1150093, “Santolindiacetylene, a polyacetylene derivative isolated from the essential oil of Santolina canescens” (J Nat Prod, 1995):
In brackets after ≈: the same amount, converted by molar mass.

Tests used:
[1] = system: Radical scavenging activity; assay: Antioxidant activity assessed as DPPH radical scavenging activity; assay type: functional
Rattus norvegicus [2] = assay: Antihepatotoxic activity against carbon tetrachloride-induced hepatotoxicity in Wistar rat liver assessed as decrease in serum glutamate pyruvate transaminase level at 35 mg/kg, ip administered 24 hrs before carbon tetrachloride intoxication; assay type: functional, organism-based; design: dose 35 mg/kg
Rattus norvegicus [3] = assay: Antihepatotoxic activity against carbon tetrachloride-induced hepatotoxicity in Wistar rat liver assessed as decrease in serum glutamate pyruvate transaminase level at 35 mg/kg, ip administered 24 hrs before carbon tetrachloride intoxication relative to control; assay type: functional, organism-based; design: dose 35 mg/kg; scale not given: the % may be the effect or the level left
Rattus norvegicus [4] = assay: Antihepatotoxic activity against carbon tetrachloride-induced hepatotoxicity in Wistar rat liver assessed as decrease in hepatic malondialdehyde level at 35 mg/kg, ip administered 24 hrs before carbon tetrachloride intoxication; assay type: functional, organism-based; design: dose 35 mg/kg
Rattus norvegicus [5] = assay: Antihepatotoxic activity against carbon tetrachloride-induced hepatotoxicity in Wistar rat liver assessed as decrease in hepatic malondialdehyde level at 35 mg/kg, ip administered 24 hrs before carbon tetrachloride intoxication relative to control; assay type: functional, organism-based; design: dose 35 mg/kg; scale not given: the % may be the effect or the level left
Rattus norvegicus [6] = assay: Antihepatotoxic activity against carbon tetrachloride-induced hepatotoxicity in Wistar rat assessed as decrease in serum glutamate pyruvate transaminase level at 7 mg/kg, ip administered 24 hrs before carbon tetrachloride intoxication; assay type: functional; conditions: route intraperitoneal
Rattus norvegicus [7] = assay: Antihepatotoxic activity against carbon tetrachloride-induced hepatotoxicity in Wistar rat liver assessed as decrease in serum glutamate pyruvate transaminase level at 7 mg/kg, ip administered 24 hrs before carbon tetrachloride intoxication relative to control; assay type: functional; design: scale not given: the % may be the effect or the level left; conditions: route intraperitoneal
Rattus norvegicus [8] = assay: Antihepatotoxic activity against carbon tetrachloride-induced hepatotoxicity in Wistar rat liver assessed as decrease in hepatic malondialdehyde level at 7 mg/kg, ip administered 24 hrs before carbon tetrachloride intoxication; assay type: functional; conditions: route intraperitoneal
Rattus norvegicus [9] = assay: Antihepatotoxic activity against carbon tetrachloride-induced -induced hepatotoxicity in Wistar rat liver assessed as decrease in hepatic malondialdehyde level at 7 mg/kg, ip administered 24 hrs before carbon tetrachloride intoxication relative to control; assay type: functional; design: scale not given: the % may be the effect or the level left; conditions: route intraperitoneal

| Compound | EC50 [1] | other results |
| --- | --- | --- |
| C=C1CCC2CC1C2(C)C (stereo not drawn) [BETA-PINENE] | 220.1 mg/mL (≈ 1620 mM) | – |
| CC1=CC[C@@H](C(C)(C)O)CC1 [ALPHA-TERPINEOL] | 0.1463 mg/mL (≈ 0.948 mM) | – |
| C=C1CC/C=C(/C)CC[C@@H]2[C@@H]1CC2(C)C [CARYOPHYLLENE] | 0.0037 mg/mL (≈ 0.0181 mM) | – |
| CC1=CCC2CC1C2(C)C (stereo not drawn) [ALPHA-PINENE] | 330.6 mg/mL (≈ 2430 mM) | – |
| CC1=CCC(C(C)C)=CC1 [GAMMA-TERPINENE] | 22 mg/mL (≈ 161 mM) | – |
| C=C1C=CC(C(C)C)CC1 (stereo not drawn) [BETA-PHELLANDRENE] | 127.7 mg/mL (≈ 937 mM) | – |
| C=CC(=C)CCC=C(C)C [MYRCENE] | 248 mg/mL (≈ 1820 mM) | – |
| CC1=CCC(O)(C(C)C)CC1 (centres undefined) [TERPINEOL] | 53.7 mg/mL (≈ 348 mM) | – |
| Cc1ccc(C(C)C)cc1 [P-CYMENE] | 408 mg/mL (≈ 3040 mM) | – |
| CC12CCC(CC1=O)C2(C)C (centres undefined) [CAMPHOR] | 2.4 mg/mL (≈ 15.8 mM) | – |
| CC1(C)C2CCC1(C)C(O)C2 (centres undefined) [BORNEOL] | 2.4 mg/mL (≈ 15.6 mM) | – |
| C=C1CCC2(C(C)C)CC12 (centres undefined) [SABINENE] | 232.7 mg/mL (≈ 1710 mM) | – |
| C=C(C)C1CC=C(C)C(=O)C1 (centres undefined) [CARVONE] | 11.7 mg/mL (≈ 77.9 mM) | – |
| SILYMARIN | – | Activity [1]: 24.6 µg/mL; Activity (Rattus norvegicus [2]): 27.9 IU/L; Activity (Rattus norvegicus [3]): 23.7%; Activity (Rattus norvegicus [4]): 0.2 nmol/mL; Activity (Rattus norvegicus [5]): 36.6% |
| CC#CC#CCc1ccc2ccccc2c1 [SANTOLINDIACETYLENE] | – | Activity [1]: 1.7 µg/mL; Activity (Rattus norvegicus [6]): 23.3 IU/L; Activity (Rattus norvegicus [7]): 19.8%; Activity (Rattus norvegicus [8]): 0.182 nmol/mL; Activity (Rattus norvegicus [9]): 33.3% |
| O=C1O[C@H]([C@@H](O)CO)C(O)=C1O | – | Activity [1]: 2.7 µg/mL |
